Source: paper PMC5218480 (PLoS ONE, 2017)

System: MV-4-11 cells
Assay: Gene expression microarray analysis (Affymetrix PrimeView) and GSEA
Assay type: cell-based, human
Parameters: RFU PODN (11730768_x_at) / Fold change /veh PODN (11730768_x_at) / RFU LINC00158 (11744669_a_at) / Fold change /veh LINC00158 (11744669_a_at) / RFU DUSP10 (11751237_a_at) / Fold change /veh DUSP10 (11751237_a_at) / RFU ID3 (11757404_x_at) / Fold change /veh ID3 (11757404_x_at) / RFU PLEKHG5 (11737974_s_at) / Fold change /veh PLEKHG5 (11737974_s_at) / RFU LRRC4B (11730491_at) / Fold change /veh LRRC4B (11730491_at) / RFU GIMAP4 (11747438_a_at) / Fold change /veh GIMAP4 (11747438_a_at) / RFU KRT8 (11758183_x_at) / Fold change /veh KRT8 (11758183_x_at) / RFU CNN1 (11734310_a_at) / Fold change /veh CNN1 (11734310_a_at) / RFU VPS37D (11726825_at) / Fold change /veh VPS37D (11726825_at) / RFU C10orf10 (11716522_x_at) / Fold change /veh C10orf10 (11716522_x_at) / RFU KIR2DL2 /// KIR2DL4 /// KIR2DL5A /// KIR2DL5B /// KIR2DS1 /// KIR2DS2 /// KIR2DS3 /// KIR2DS4 /// KIR3DL3 /// KIR3DL3 /// KIR3DS1 (11738374_at) / Fold change /veh KIR2DL2 /// KIR2DL4 /// KIR2DL5A /// KIR2DL5B /// KIR2DS1 /// KIR2DS2 /// KIR2DS3 /// KIR2DS4 /// KIR3DL3 /// KIR3DL3 /// KIR3DS1 (11738374_at) / RFU C1QL1 (11718748_at) / Fold change /veh C1QL1 (11718748_at) / RFU TMPRSS4 (11747572_a_at) / Fold change /veh TMPRSS4 (11747572_a_at) / RFU HAMP (11756126_x_at) / Fold change /veh HAMP (11756126_x_at) / RFU RNFT2 (11725882_a_at) / Fold change /veh RNFT2 (11725882_a_at) / RFU NR4A2 (11747474_a_at) / Fold change /veh NR4A2 (11747474_a_at) / RFU ABCC12 (11746883_a_at) / Fold change /veh ABCC12 (11746883_a_at) / RFU TMEM136 (11760407_x_at) / Fold change /veh TMEM136 (11760407_x_at) / RFU CLDN22 /// WWC2 (11732394_at) / Fold change /veh CLDN22 /// WWC2 (11732394_at) / RFU HLA-DPB1 (11760878_x_at) / Fold change /veh HLA-DPB1 (11760878_x_at) / RFU SPINT1 (11716480_a_at) / Fold change /veh SPINT1 (11716480_a_at) / RFU GAP43 (11754022_s_at) / Fold change /veh GAP43 (11754022_s_at) / RFU A4GNT (11735810_at) / Fold change /veh A4GNT (11735810_at) / RFU PRB3 (11715151_x_at) / Fold change /veh PRB3 (11715151_x_at) / RFU TUBB4B (11761932_at) / Fold change /veh TUBB4B (11761932_at) / RFU CAPN14 (11732068_a_at) / Fold change /veh CAPN14 (11732068_a_at) / RFU TMCC2 (11721928_a_at) / Fold change /veh TMCC2 (11721928_a_at) / RFU IRGQ (11745062_a_at) / Fold change /veh IRGQ (11745062_a_at) / RFU FAM174B (11720279_a_at) / Fold change /veh FAM174B (11720279_a_at) / RFU TMPRSS4 (11748680_a_at) / Fold change /veh TMPRSS4 (11748680_a_at) / RFU FAM212B (11763350_a_at) / Fold change /veh FAM212B (11763350_a_at) / RFU PLEKHG5 (11743358_a_at) / Fold change /veh PLEKHG5 (11743358_a_at) / RFU ZSCAN30 (11745921_a_at) / Fold change /veh ZSCAN30 (11745921_a_at) / RFU CMKLR1 (11741424_a_at) / Fold change /veh CMKLR1 (11741424_a_at) / RFU LOC101060620 /// MAPK8IP1 (11723275_at) / Fold change /veh LOC101060620 /// MAPK8IP1 (11723275_at) / RFU SPTSSB (11747773_x_at) / Fold change /veh SPTSSB (11747773_x_at) / RFU PRSS12 (11739890_at) / Fold change /veh PRSS12 (11739890_at) / RFU BIN1 (11741810_x_at) / Fold change /veh BIN1 (11741810_x_at) / RFU WNT11 (11732464_a_at) / Fold change /veh WNT11 (11732464_a_at) / RFU C10orf10 (11716521_a_at) / Fold change /veh C10orf10 (11716521_a_at) / RFU C5orf56 (11738089_at) / Fold change /veh C5orf56 (11738089_at) / RFU CYB561 (11721691_x_at) / Fold change /veh CYB561 (11721691_x_at) / RFU ANKRD19P (11752326_a_at) / Fold change /veh ANKRD19P (11752326_a_at) / RFU OR2T12 /// OR2T33 /// OR2T8 (11738714_s_at) / Fold change /veh OR2T12 /// OR2T33 /// OR2T8 (11738714_s_at) / RFU VCAN (11748164_a_at) / Fold change /veh VCAN (11748164_a_at) / RFU JSRP1 (11732532_at) / Fold change /veh JSRP1 (11732532_at) / RFU KRTAP10-11 (11738290_x_at) / Fold change /veh KRTAP10-11 (11738290_x_at) / RFU MYO3A (11730013_a_at) / Fold change /veh MYO3A (11730013_a_at) / RFU EBF3 (11725865_a_at) / Fold change /veh EBF3 (11725865_a_at) / RFU CAMK2N1 (11719241_x_at) / Fold change /veh CAMK2N1 (11719241_x_at) / RFU C5orf56 (11738088_a_at) / Fold change /veh C5orf56 (11738088_a_at) / RFU OLFML3 (11715873_a_at) / Fold change /veh OLFML3 (11715873_a_at) / RFU LOC100653217 /// NTM (11731650_a_at) / Fold change /veh LOC100653217 /// NTM (11731650_a_at) / RFU MAPK11 (11762145_a_at) / Fold change /veh MAPK11 (11762145_a_at) / RFU FIZ1 (11724087_x_at) / Fold change /veh FIZ1 (11724087_x_at) / RFU OASL (11726364_x_at) / Fold change /veh OASL (11726364_x_at) / RFU SOX15 (11748057_x_at) / Fold change /veh SOX15 (11748057_x_at) / RFU CD79A (11719716_a_at) / Fold change /veh CD79A (11719716_a_at) / RFU HIST1H1D (11736915_at) / Fold change /veh HIST1H1D (11736915_at) / RFU CASKIN2 (11723855_a_at) / Fold change /veh CASKIN2 (11723855_a_at) / RFU LOC730098 (11760151_x_at) / Fold change /veh LOC730098 (11760151_x_at) / RFU OR4N2 (11742367_at) / Fold change /veh OR4N2 (11742367_at) / RFU PRRT2 (11749266_a_at) / Fold change /veh PRRT2 (11749266_a_at) / RFU SNX32 (11753110_a_at) / Fold change /veh SNX32 (11753110_a_at) / RFU CDHR5 (11726645_a_at) / Fold change /veh CDHR5 (11726645_a_at) / RFU RCAN1 (11760418_a_at) / Fold change /veh RCAN1 (11760418_a_at) / RFU FAM167A (11723789_a_at) / Fold change /veh FAM167A (11723789_a_at) / RFU FAM26E (11764081_at) / Fold change /veh FAM26E (11764081_at) / RFU ISYNA1 (11749810_s_at) / Fold change /veh ISYNA1 (11749810_s_at) / RFU ACY1 (11761880_at) / Fold change /veh ACY1 (11761880_at) / RFU 11764098_at / Fold change /veh 11764098_at / RFU SAMD14 (11745864_x_at) / Fold change /veh SAMD14 (11745864_x_at) / RFU NPB (11741838_a_at) / Fold change /veh NPB (11741838_a_at) / RFU TMPRSS6 (11731388_a_at) / Fold change /veh TMPRSS6 (11731388_a_at) / RFU KRTAP10-2 (11738614_at) / Fold change /veh KRTAP10-2 (11738614_at) / RFU ARHGAP8 /// PRR5-ARHGAP8 (11727945_x_at) / Fold change /veh ARHGAP8 /// PRR5-ARHGAP8 (11727945_x_at) / RFU KRTAP5-7 /// NADSYN1 (11734609_at) / Fold change /veh KRTAP5-7 /// NADSYN1 (11734609_at) / RFU RASL12 (11751679_a_at) / Fold change /veh RASL12 (11751679_a_at) / RFU CDKN2B (11736163_a_at) / Fold change /veh CDKN2B (11736163_a_at) / RFU PRF1 (11729649_at) / Fold change /veh PRF1 (11729649_at) / RFU, ZNF638 /// ZNF638-IT1 / Fold change vs veh, ZNF638 /// ZNF638-IT1 / RFU, PANK3 / Fold change vs veh, PANK3 / RFU, SH3YL1 / Fold change vs veh, SH3YL1 / RFU, ZEB2 / Fold change vs veh, ZEB2 / RFU, NRIP1 / Fold change vs veh, NRIP1 / RFU, PTTG1IP / Fold change vs veh, PTTG1IP / RFU, CAPN2 / Fold change vs veh, CAPN2 / RFU, MED14 / Fold change vs veh, MED14 / RFU, SNORA58 / Fold change vs veh, SNORA58 / RFU, C1orf63 / Fold change vs veh, C1orf63 / RFU, LRRFIP1 / Fold change vs veh, LRRFIP1 / RFU, NDUFAF7 / Fold change vs veh, NDUFAF7 / RFU, SLC12A2 / Fold change vs veh, SLC12A2 / RFU, IBTK / Fold change vs veh, IBTK / RFU, ESF1 / Fold change vs veh, ESF1 / Fold change vs veh, TMEM50B / RFU, TAOK1 / Fold change vs veh, TAOK1 / RFU, ACBD3 / Fold change vs veh, ACBD3 / RFU, TMA16 / Fold change vs veh, TMA16 / RFU, RWDD3 / Fold change vs veh, RWDD3 / RFU, BCAT1 / Fold change vs veh, BCAT1 / RFU, EDEM3 / Fold change vs veh, EDEM3 / RFU, TMEM33 / Fold change vs veh, TMEM33 / RFU, WDR75 / Fold change vs veh, WDR75 / RFU, AHCTF1 / Fold change vs veh, AHCTF1 / RFU, TFRC / Fold change vs veh, TFRC / RFU, ZDHHC17 / Fold change vs veh, ZDHHC17 / RFU, NOM1 / Fold change vs veh, NOM1 / RFU, ARL8B / Fold change vs veh, ARL8B / RFU, ZBTB11 / Fold change vs veh, ZBTB11 / RFU, TAMM41 / Fold change vs veh, TAMM41 / RFU, KIAA1704 /// LOC100996395 / Fold change vs veh, KIAA1704 /// LOC100996395 / RFU, ING1 / Fold change vs veh, ING1 / RFU, TRMT61B / Fold change vs veh, TRMT61B / RFU, FUBP3 / Fold change vs veh, FUBP3 / RFU, TP53 / Fold change vs veh, TP53 / RFU, TNKS2 / Fold change vs veh, TNKS2 / RFU, ZFP14 / Fold change vs veh, ZFP14 / RFU, ACTR2 / Fold change vs veh, ACTR2 / RFU, PPP3R1 / Fold change vs veh, PPP3R1 / RFU, PIK3R1 / Fold change vs veh, PIK3R1 / RFU, HNRNPA1 / Fold change vs veh, HNRNPA1 / RFU, RNF170 / Fold change vs veh, RNF170 / RFU, ZNF28 / Fold change vs veh, ZNF28 / RFU, RNGTT / Fold change vs veh, RNGTT / RFU, OGT / Fold change vs veh, OGT / RFU, BRD1 / Fold change vs veh, BRD1 / RFU, MARS / Fold change vs veh, MARS / RFU, ZNF655 / Fold change vs veh, ZNF655 / RFU, FAHD1 / Fold change vs veh, FAHD1 / RFU, BDP1 / Fold change vs veh, BDP1 / RFU, LRRCC1 / Fold change vs veh, LRRCC1 / RFU, ARID1A / Fold change vs veh, ARID1A / RFU, ZNF146 / Fold change vs veh, ZNF146 / RFU, ZNF330 / Fold change vs veh, ZNF330 / RFU, GPN3 / Fold change vs veh, GPN3 / RFU, C9orf123 / Fold change vs veh, C9orf123 / RFU, N4BP2L2 / Fold change vs veh, N4BP2L2 / RFU, ARFIP1 / Fold change vs veh, ARFIP1 / RFU, FAM179B / Fold change vs veh, FAM179B / RFU, BCL10 / Fold change vs veh, BCL10 / RFU, UHRF1BP1L / Fold change vs veh, UHRF1BP1L / RFU, BET1 / Fold change vs veh, BET1 / RFU, CNOT2 / Fold change vs veh, CNOT2 / RFU, ZNF268 / Fold change vs veh, ZNF268 / Fold change vs veh, ZNF507 / RFU, DGCR2 / Fold change vs veh, DGCR2 / RFU, WDSUB1 / Fold change vs veh, WDSUB1 / Fold change vs veh, HSP90B1 /// MIR3652 / RFU, ADSS / Fold change vs veh, ADSS / RFU, GK / Fold change vs veh, GK / RFU, ZNF148 / Fold change vs veh, ZNF148 / RFU, TAF9 / Fold change vs veh, TAF9 / RFU, SLC1A5 / Fold change vs veh, SLC1A5 / RFU, SLMO2 / Fold change vs veh, SLMO2 / RFU, ABCC4 / Fold change vs veh, ABCC4 / RFU, LOC101060439 /// RAP1B / Fold change vs veh, LOC101060439 /// RAP1B / RFU, RFX7 / Fold change vs veh, RFX7 / RFU, GTPBP10 / Fold change vs veh, GTPBP10 / RFU, CNEP1R1 / Fold change vs veh, CNEP1R1 / RFU, BIVM-ERCC5 /// ERCC5 / Fold change vs veh, BIVM-ERCC5 /// ERCC5 / RFU, ILF3 / Fold change vs veh, ILF3 / RFU 11762660_at / Fold change /veh 11762660_at / RFU VCAN (11757783_s_at) / Fold change /veh VCAN (11757783_s_at) / RFU DDX43 (11728927_at) / Fold change /veh DDX43 (11728927_at) / RFU KRT8 (11758188_x_at) / Fold change /veh KRT8 (11758188_x_at) / RFU NKD1 (11759106_at) / Fold change /veh NKD1 (11759106_at) / RFU SRD5A1 (11742802_a_at) / Fold change /veh SRD5A1 (11742802_a_at) / RFU TPSAB1 /// TPSB2 (11721975_s_at) / Fold change /veh TPSAB1 /// TPSB2 (11721975_s_at) / RFU GSTM3 (11746129_a_at) / Fold change /veh GSTM3 (11746129_a_at) / RFU IL23R (11737362_x_at) / Fold change /veh IL23R (11737362_x_at) / RFU TMEM51 (11727254_a_at) / Fold change /veh TMEM51 (11727254_a_at) / RFU PIWIL2 (11732686_x_at) / Fold change /veh PIWIL2 (11732686_x_at) / RFU ORM1 (11744905_x_at) / Fold change /veh ORM1 (11744905_x_at) / RFU CCDC152 (11743942_at) / Fold change /veh CCDC152 (11743942_at) / RFU ECM1 (11717891_a_at) / Fold change /veh ECM1 (11717891_a_at) / RFU IL23R (11748794_a_at) / Fold change /veh IL23R (11748794_a_at) / RFU TNFAIP8L3 (11732012_x_at) / Fold change /veh TNFAIP8L3 (11732012_x_at) / RFU MBOAT4 (11741988_at) / Fold change /veh MBOAT4 (11741988_at) / RFU 11764193_at / Fold change /veh 11764193_at / RFU TMEM53 (11763286_at) / Fold change /veh TMEM53 (11763286_at) / RFU MAGEB2 (11727129_at) / Fold change /veh MAGEB2 (11727129_at) / RFU TMEM200A (11744735_a_at) / Fold change /veh TMEM200A (11744735_a_at) / RFU CCDC152 (11751479_a_at) / Fold change /veh CCDC152 (11751479_a_at) / RFU FAM211A (11726209_a_at) / Fold change /veh FAM211A (11726209_a_at) / RFU RGS16 (11746705_a_at) / Fold change /veh RGS16 (11746705_a_at) / RFU VCAN (11755009_s_at) / Fold change /veh VCAN (11755009_s_at) / RFU RHOB (11743442_s_at) / Fold change /veh RHOB (11743442_s_at) / RFU RGS16 (11720943_a_at) / Fold change /veh RGS16 (11720943_a_at) / RFU RGS16 (11720944_at) / Fold change /veh RGS16 (11720944_at) / RFU, VPS4B / Fold change vs veh, VPS4B / RFU, CREB1 / Fold change vs veh, CREB1 / RFU, DNAJC13 / Fold change vs veh, DNAJC13 / RFU, GNAQ / Fold change vs veh, GNAQ / RFU, CDK5R1 / Fold change vs veh, CDK5R1 / RFU, ZRANB3 / Fold change vs veh, ZRANB3 / RFU, CUL4A / Fold change vs veh, CUL4A / RFU, CCNY / Fold change vs veh, CCNY / RFU, UFL1 / Fold change vs veh, UFL1 / RFU, COG3 / Fold change vs veh, COG3 / RFU, DIAPH2 / Fold change vs veh, DIAPH2 / RFU, SKA2 / Fold change vs veh, SKA2 / RFU, AFF3 / Fold change vs veh, AFF3 / RFU, LMF1 / Fold change vs veh, LMF1 / RFU, IPO11 / Fold change vs veh, IPO11 / RFU, DFFB / Fold change vs veh, DFFB / RFU, FOXP1 / Fold change vs veh, FOXP1 / RFU, CARD8 / Fold change vs veh, CARD8 / RFU, STRN3 / Fold change vs veh, STRN3 / RFU, ADK / Fold change vs veh, ADK / RFU, RASSF2 / Fold change vs veh, RASSF2 / RFU, WIPF1 / Fold change vs veh, WIPF1 / RFU, LARP1B / Fold change vs veh, LARP1B / RFU, RASA1 / Fold change vs veh, RASA1 / RFU, RB1 / Fold change vs veh, RB1 / RFU, PPFIA1 / Fold change vs veh, PPFIA1 / RFU, MAT2A / Fold change vs veh, MAT2A / RFU, CCT5 / Fold change vs veh, CCT5 / RFU, WDR92 / Fold change vs veh, WDR92 / RFU, CUX1 / Fold change vs veh, CUX1 / RFU, TTC7A / Fold change vs veh, TTC7A / RFU, TMEM135 / Fold change vs veh, TMEM135 / RFU, DEPTOR / Fold change vs veh, DEPTOR / RFU, CPM / Fold change vs veh, CPM / RFU, DNAJB6 / Fold change vs veh, DNAJB6 / RFU, CACNA2D3 / Fold change vs veh, CACNA2D3 / RFU, DTX4 / Fold change vs veh, DTX4 / RFU, TFCP2 / Fold change vs veh, TFCP2 / RFU, GMCL1 /// GMCL1P1 / Fold change vs veh, GMCL1 /// GMCL1P1 / RFU, AEBP2 / Fold change vs veh, AEBP2 / RFU, SNHG1 /// SNORD22 /// SNORD25 /// SNORD26 /// SNORD27 /// SNORD28 /// SNORD29 /// SNORD31 / Fold change vs veh, SNHG1 /// SNORD22 /// SNORD25 /// SNORD26 /// SNORD27 /// SNORD28 /// SNORD29 /// SNORD31 / Fold change (Aza/veh), C12orf56 (ProbeSet 11735607_a_at) / Fold change (ACY-1035/veh), C12orf56 (ProbeSet 11735607_a_at) / Fold change (Aza/veh), FGFR1OP (ProbeSet 11751329_s_at) / Fold change (ACY-1035/veh), FGFR1OP (ProbeSet 11751329_s_at) / Fold change (Aza/veh), VPS36 (ProbeSet 11739960_a_at) / Fold change (ACY-1035/veh), VPS36 (ProbeSet 11739960_a_at) / RFU SYPL1 (11715823_x_at) / Fold change /veh SYPL1 (11715823_x_at) / RFU IGFBP7 (11715501_s_at) / Fold change /veh IGFBP7 (11715501_s_at) / RFU REEP3 (11722064_at) / Fold change /veh REEP3 (11722064_at) / RFU IGLL1 (11728026_x_at) / Fold change /veh IGLL1 (11728026_x_at): dose or concentration left out as unconfirmed
Conditions: ProbeSet 11723141_at; LIST B

Nc1ncn([C@@H]2O[C@H](CO)[C@@H](O)[C@H]2O)c(=O)n1 [azacitidine]
Fold change vs veh, ZBTB11: 0.93
